Test system: STZ-induced mice
Test: von-Frey test, mechanical allodynia in streptozotocin (STZ)-induced diabetic mice
Assay type: in vivo
Conditions: paw withdrawal response to von-Frey filaments
From the text: The pancreatic β-cell cytotoxic agent STZ is widely used to induce diabetes in rodents. The glucosamine-nitrosourea compound STZ is taken up into the insulin-producing β-cells of the islets of Langerhan's via the GLUT-2 glucose transporter. The cytotoxic effect of STZ is mediated through a decrease in NAD levels, and the formation of intracellular free radicals leading to various toxic effects, including DNA-strand breaks (Schnedl et al., 1994). […] STZ-induced diabetic rodents show common features of human diabetes that include damage to the eye, kidney, blood vessels, and nervous system. Diabetic neuropathic pain occurs mainly due to the damage in the nervous system (Sima and Sugimoto, 1999).
Method: In the present study, diabetes is induced in mice by a single i.v. injection of STZ (200 mg/kg) as reported previously (Kamei et al., 1991; Rashid and Ueda, 2002). […] The plasma glucose level in the mice is measured in blood samples obtained from tail vein. […]
Thermal hyperalgesia and mechanical allodynia is measured at different time points (1-21 days) after STZ injection. Mechanical allodynia is measured using von-Frey filaments, a well-established method known by those skilled in the art, where the paw withdrawal response is measured. Similarly, thermal hyperalgesia is measured as the latency to paw withdrawal evoked by exposing the right hind paw to a thermal stimulus. […]

CN1CCN(CCc2ccc(Cl)c(Cl)c2)CC1 [BD-1063, 1-(3,4-dichlorophenethyl)-4-methylpiperazine]
mechanical allodynia in the von-Frey test: significantly antagonizes mechanical allodynia
